The structures appear in SMILES notation.

Consider 10 compounds from patent publication US9987333B2, “Method for suppressing malignant tumor metastasis” (Shionogi & Co., Ltd., priority 2012, dated 2018).

Assay [1] relates to Mouse melanoma B16-F10. Nature of the assay: Tail vein injection metastasis test, mouse melanoma B16-F10 (Example 1). The class given is in vivo, mice. As for the experimental part: Six-week-old male C56BL/6N mice (purchased from Japan SLC, Inc.) were used. Mouse melanoma B16-F10 was purchased from ATCC, and cultured in DMEM (Life Technologies Corp.) containing 10% FCS under 5% CO2 at 37° C. The cells in a subconfluent state were treated with EDTA-trypsin, centrifuged, and then suspended in serum free DMEM so as to be 5×10^6 cells/mL. The melanoma cell suspension (100 μL/mouse, 5×10^5 cells) was injected to the tail vein of the mice.
For the CDDP group, 5 mg/kg of CDDP was injected, as pretreatment, to the tail vein of the mice 2 days before the injection of the melanoma cells into the tail vein. For the control group, an osmotic pump containing 0.9% physiological saline was subcutaneously implanted in the back of each mouse on the day before the injection of the melanoma cells into the tail vein. Similarly, for the adrenomedullin group, an osmotic pump containing adrenomedullin prepared for administration at 0.05 μg/kg/min was subcutaneously implanted into each mouse, and for the ghrelin group, an osmotic pump containing ghrelin prepared for administration at 0.08 μg/kg/min was subcutaneously implanted into each mouse. The tail vein injection of the melanoma cells was performed as above and the drug administration was continued for 2 weeks. The condition of the lung metastasis of the tumor cells 2 weeks after the tumor cell injection was observed (FIG. 1).
To the angiotensin II receptor antagonist group, a 0.5% methylcellulose aqueous solution prepared so as to contain 2 mg/kg or 8 mg/kg of telmisartan was orally given for 4 days before the start of the experiment (before the injection of tumor cells to mice), and to the pitavastatin group, a 0.5% methylcellulose aqueous solution prepared so as to contain 20 mg/kg of pitavastatin was orally given for the same period. After the injection of tumor cells, the oral intake of methylcellulose aqueous solutions containing telmisartan or pitavastatin in the above doses in the angiotensin II receptor antagonist group and the pitavastatin group was continued until the end of the experiment. To the control group, a 0.5% methylcellulose aqueous solution not containing any of the agents was orally given before the start of the experiment. Also, as reference example, angiotensin II was administered at 1 μg/kg/min, and then the experiment was conducted in the same way. The sample size of each group was n=5.
In contrast, in both of the telmisartan 2 mg/kg group and the telmisartan 8 mg/kg group, the exacerbation by CDDP was suppressed. The telmisartan 2 mg/kg (CDDP group) and the telmisartan 8 mg/kg (CDDP group) shown in FIGS. 3 and 4 are groups to which 2 mg/kg or 8 mg/kg of telmisartan was given in the manner described above before CDDP was injected as pretreatment. The pitavastatin (CDDP group) is the group to which pitavastatin was given in the manner described above before CDDP was injected as pretreatment.

Assay [2] relates to Human lung arterial microvascular endothelial cells. Nature of the assay: Adhesion of A549-GFP human lung cancer cells to human lung arterial microvascular endothelial cells in co-culture (Example 3). The following applies: 3 h co-culture. In kind it is cell-based. As for the experimental part:
Human lung arterial microvascular endothelial cells were cultured to confluence, losartan was added thereto (to a final concentration of 5×10^−6 M), and 2 hours later, phosphate buffered saline (PBS) or cisplatin (CDDP) was added (to a final concentration of 5 μM). An hour later, the culture medium was replaced with a fresh culture medium (Medium 199 containing 1% BSA). To this, a suspension of fluorescently-labeled A549 human lung cancer cells (1×10^5 cells) was added, and the cells were co-cultured for 3 hours. After the co-culture, non-adherent cancer cells were washed out with cold PBS, and then 15-minute fixation with 4% formalin was performed. […] In FIG. 9A, spots which appear gray (actually green) are fluorescently-labeled A549-GFP human lung cancer cells. In FIG. 9B, white bars are for the control (without losartan pretreatment), and black bars are for the cases with losartan pretreatment. The vertical axis indicates the number of cancer cells that adhered (*: P<0.05).
Human lung arterial microvascular endothelial cells (manufactured by Lonza Japan) were cultured to confluence, losartan was added thereto (to a final concentration of 5×10^−6 M), and 2 hours later, phosphate buffered saline (PBS) or cisplatin (CDDP) was added (to a final concentration of 5 μM). […]

For assay [3], the system named is Mouse melanoma B16-F10. The experiment in a line: Tail vein injection metastasis test, mouse melanoma B16-F10, CDDP pretreatment with angiotensin II receptor antagonists (Example 2). The class given is in vivo, mice. The following applies: 14 days; for exacerbation of lung metastasis caused by CDDP: oral, with CDDP 5 mg/kg, valsartan 40, losartan 30, olmesartan medoxomil 5, azilsartan 10, candesartan cilexetil 8, irbesartan 100 mg/kg. On the procedure: Eight-week-old male C57BL6 mice (purchased from Japan SLC, Inc.) were used. Mouse melanoma B16-F10 was purchased from ATCC, and cultured in DMEM (Life Technologies Corp.) containing 10% FCS under 5% CO2 at 37° C. The cells in a subconfluent state were treated with EDTA-trypsin, centrifuged, and then suspended in serum free DMEM so as to be 5×10^6 cells/mL. The melanoma cell suspension (100 μL/mouse, […]) was injected to the tail vein of the mice. As pretreatment, 5 mg/kg of cisplatin (CDDP) was injected to the tail vein of the mice 2 days before the injection of the melanoma cells into the tail vein. As an angiotensin II receptor antagonist, used were valsartan (trade name: Diovan made by Novartis Pharma K.K.), losartan (trade name: Nu-Lotan made by MSD K.K.), olmesartan medoxomil (trade name: Olmetecmade by Daiichi Sankyo Co., Ltd.), azilsartan (trade name: Azilva made by Takeda Pharmaceutical Co., Ltd.), candesartan cilexetil (trade name: Blopress made by Takeda Pharmaceutical Co., Ltd.), and irbesartan (trade name: Avapro made by Sumitomo Dainippon Pharma Co., Ltd.). To the angiotensin II receptor antagonist group, a 0.5% methylcellulose aqueous solution prepared so as to contain valsartan (40 mg/kg), losartan (30 mg/kg), olmesartan medoxomil (5 mg/kg), azilsartan (10 mg/kg), candesartan cilexetil (8 mg/kg), or irbesartan (100 mg/kg) was orally given for 4 days before the start of the experiment (before the injection of tumor cells to mice). After the injection of tumor cells, the oral intake of methylcellulose aqueous solutions containing telmisartan or pitavastatin in the above doses in the angiotensin II receptor antagonist group and the pitavastatin group was continued until the end of the experiment. To the control group, a 0.5% methylcellulose aqueous solution not containing any of the agents was orally given before the start of the experiment. The sample size of each group was n=5. The condition of the lung metastasis of the tumor cells 2 weeks (14 days) after the tumor cell injection was observed.

Assay [4] relates to tumor. The following applies: Non Patent Literature 27; cited from earlier work.
In assay [5] the test system is colon cancer cells. The note with it: Non Patent Literature 24; cited from earlier work.
Assay [6] deals with renal cell carcinoma. The following applies: Non Patent Literature 23; cited from earlier work.
Assay [7] has as its system human umbilical vein endothelial cells (HUVECs). The note with it: Non Patent Literature 29; cited from earlier work.
In assay [8] the test system is E select in. The following applies: Non Patent Literature 29; cited from earlier work.

Regarding `[NH2][Pt]([NH2])([Cl])[Cl]` [CDDP, cisplatin], the “lung metastasis of melanoma (number of nodules formed in the lungs)” value in assay [1] (CDDP 5 mg/kg tail vein 2 days before melanoma injection, compared to the control group) is “significantly increased”. Further, the “number of cancer cells adhered to the vascular endothelial cells” value in assay [2] (1-hour pretreatment with 5 μM CDDP) is “increased”. The “tumor metastasis (number of lung nodules)” value in assay [3] (CDDP 5 mg/kg tail vein 2 days before melanoma injection, vs control) was “augmented”.
In the case of `CCOc1nc2cccc(C(=O)O)c2n1Cc1ccc(-c2ccccc2-c2nc(=O)o[nH]2)cc1` [azilsartan], in assay [3], the “exacerbation of lung metastasis caused by CDDP” value was “significantly suppressed”.
Take `CCOc1nc2cccc(C(=O)OC(C)OC(=O)OC3CCCCC3)c2n1Cc1ccc(-c2ccccc2-c2nn[nH]n2)cc1` (stereo not shown) [candesartan cilexetil]: the “angiogenesis and metastasis of a tumor” value in assay [4] is recorded as “suppressed”. The “exacerbation of lung metastasis caused by CDDP” value in assay [3] was “significantly suppressed”.
With `CCCCC1=NC2(CCCC2)C(=O)N1Cc1ccc(-c2ccccc2-c2nnn[nH]2)cc1` [irbesartan], the “exacerbation of lung metastasis caused by CDDP” value in assay [3] was “significantly suppressed”.
`CCCCc1nc(Cl)c(CO)n1Cc1ccc(-c2ccccc2-c2nn[nH]n2)cc1` [losartan]: the “liver metastasis of colon cancer cells” value in assay [5] is given as “suppressed”. Also, the “lung metastasis of renal cell carcinoma increased by cyclosporin (Cs)” value in assay [6] is “suppressed”. Also, the “adhesion of cancer cells to the vascular endothelial cells” value in assay [2] (losartan 5×10^−6 M 2 hours before 5 μM CDDP pretreatment) is “significantly suppressed”. The “exacerbation of lung metastasis caused by CDDP” value in assay [3] was “significantly suppressed”.
Turning to `CC[C@H](C)C(=O)O[C@H]1C[C@@H](C)C=C2C=C[C@H](C)[C@H](CC[C@@H]3C[C@@H](O)CC(=O)O3)[C@H]21` [lovastatin], the “adhesion of colon cancer cells to human umbilical vein endothelial cells (HUVECs)” value in assay [7] is recorded as “inhibits”. In addition, in assay [8], the “E select in expression” value was “inhibits”.
For the compound `CCCc1nc(C(C)(C)O)c(C(=O)OCc2oc(=O)oc2C)n1Cc1ccc(-c2ccccc2-c2nnn[nH]2)cc1` [olmesartan medoxomil], in assay [3], the “exacerbation of lung metastasis caused by CDDP” value is reported as “significantly suppressed”.
Take `O=C(O)C[C@H](O)C[C@H](O)/C=C/c1c(C2CC2)nc2ccccc2c1-c1ccc(F)cc1` [pitavastatin]: in assay [1] (pitavastatin 20 mg/kg orally before CDDP (5 mg/kg) pretreatment, 14 days), the “exacerbation of the lung metastasis by CDDP” value is “significantly suppressed”.
In the case of `CCCc1nc2c(C)cc(-c3nc4ccccc4n3C)cc2n1Cc1ccc(-c2ccccc2C(=O)O)cc1` [telmisartan], the “exacerbation of lung metastasis by CDDP” value in assay [1] (telmisartan 2 mg/kg orally before CDDP (5 mg/kg) pretreatment, 14 days) was “suppressed”; in assay [1] (telmisartan 8 mg/kg orally before CDDP (5 mg/kg) pretreatment, 14 days) it was “suppressed”. In addition, in assay [1] (telmisartan 8 mg/kg orally, alone, 14 days after tumor cell injection, vs control), the “lung metastasis of melanoma (number of nodules formed in the lungs)” value is on record as “significantly suppressed”.
As to `CCCCC(=O)N(Cc1ccc(-c2ccccc2-c2nnn[nH]2)cc1)[C@H](C(=O)O)C(C)C` [valsartan], the “exacerbation of lung metastasis caused by CDDP” value in assay [3] is “significantly suppressed”.
